Assay results reported in US10111431B2, “Application of biofilm formation inhibiting compounds enhances control of citrus canker” (priority 2013, dated 2018).
≈ marks a conversion by molar mass, not a printed value.

Experiments:
Xac306 biofilm formation = assay: Static biofilm formation assay in 96-well polystyrene plates with crystal violet staining; assay type: cell-based, Xanthomonas citri subsp. citri; settings: 0 to 20 mM for D-leucine and D-serine; 0 to 150 μg/mL for IAN
Protocol: A static biofilm formation assay in 96-well polystyrene plates coupled with CV staining was performed as previously reported with modifications (Li and Wang, 2011). Briefly, a 96-well polystyrene plate (Nunclon surface, Nuncbrand, Denmark) was prepared with 170 μL NB plus 1.0% glucose per well. Aliquots of 20 μL each of the different concentrations of the tested compound were pipetted into eight wells containing 170 μL of NB plus 1.0% glucose. To each of these wells was added 10 μL of the standardized overnight Xac 306 culture (OD600=1.0). Control wells contained NB plus 1.0% glucose and SDW or 0.1% DMSO as a sterility control, or standardized overnight Xac 306 culture as a growth control. The plate was covered by a MicroWell lid (Nunclon), sealed with parafilm to prevent evaporation and incubated at 28° C. for 48 h without shaking. After incubation, the planktonic growth was measured at OD600. To quantify the amount of biofilms formed on the surfaces of the wells, the culture was removed from the wells. After drying, the wells were washed twice with 200 μl of SDW for 5 min, allowed to dry then 200 μl of 0.1% CV added. After 30 minutes, the CV was removed. The wells were washed with excess SDW to remove unbound CV and air dried in an inverted position for 2 h. Afterward, 200 μl of 95% ethanol was added to the wells and incubated for 30 min at room temperature to elute bound CV. The eluted CV was 2-fold diluted in double distilled water and the absorbance at 590 nm was measured. Each data point was averaged from eight replicate wells.

[1] = system: X. citri subsp. citri strain 306; assay: Determination of minimum inhibitory concentrations (MICs) in NB medium, 96-well plate; assay type: cell-based, Xanthomonas citri subsp. citri; settings: 48 h
Protocol: Xac strain 306 was grown in NB at 28° C. with shaking at 200 rpm for 7 h. The cultures were standardized to an OD600 of 0.03 (5×10^7 colony forming unit (CFU)/mL) in NB and then aliquoted into wells of a 96-well plate, 190 μL per well. The initial test concentrations of the compounds were diluted (1:20) in the culture (10 μl of compound in 190 μl of culture) and incubated at 28° C. under stationary conditions. The cultures were monitored at 24 and 48 h at OD600, and the lowest concentration resulting in no growth after 48 h compared to the control samples was defined as the MIC for Xac strain 306. All determinations were conducted in eight replicate wells and repeated three times.

[2] = system: Xac 306 on grapefruit leaves; assay: Plant test in greenhouse, spray inoculation of grapefruit leaves; assay type: in vivo, Xanthomonas citri subsp. citri
Protocol: The effect of selected biofilm inhibitors on Xac infection/virulence-was investigated using 20-week-old potted grapefruit (Citrus paradise cv. Duncan grapefruit) plants in a quarantine greenhouse at the Citrus Research and Education Center, Lake Alfred, Fla. Copper (CuSO4, 100 μg/mL), D-leucine (10 mM), IAN (100 μg/mL) and a combination of these compounds were individually prepared in 100 ml of SDW. Bacterial inoculum was prepared by growing Xac 306 on NA plates at 28° C. for 48 h, suspending in SDW, adjusting concentration to approximately OD600=0.3 (5×10^8 CFU/mL). The inoculation was performed by a spray method as described previously (Li and Wang, 2012) with modifications. Briefly, the abaxial surfaces of fully expanded, immature leaves of each plant were sprayed with the following treatments: SDW, Xac 306, and Xac 306 combined with CuSO4 (100 μg/mL), D-leucine (10 mM), IAN (100 μg/mL), or a combination of these compounds. Silwett-L77 (silicone-polyether copolymer, Fisher) was added to each treatment at a 0.03% (V/V) final concentration. After inoculation, the plants were covered with plastic bags for 24 h to maintain a high (>90%) relative humidity and then kept in a greenhouse (approximately 60% relative humidity) for symptom development. All inoculations included a minimum of three immature leaves at a similar developmental stage from each plant, and each treatment comprised four plants. The experiments were repeated three times independently. SDW was applied as a negative control, and Xac306 mixed with SDW as positive control. To determine whether the timing of application of biofilm inhibitors in relation to Xac306 affected canker symptom suppression, the biofilm inhibitors were inoculated on leaves 6 h prior to or after inoculation with Xac306.
For bacterial population assays, the leaves of grapefruit plants were inoculated as described above. Two leaf discs randomly selected from each of three inoculated leaves were cut with a cork borer (0.8 cm in diameter) and then ground in 1 mL of SDW. The suspensions were serially diluted and plated on NA plates containing rifamycin. After incubation at 28° C. for 48 h, bacterial colonies were counted and the number of CFU per square centimeter of leaf tissue was calculated. The assays were repeated three times independently.

Xac 306 biofilm cells = assay: Resistance of Xac biofilm cells to copper, cell viability assay in glass tubes; assay type: cell-based, Xanthomonas citri subsp. citri; settings: CuSO4 (1.0 mM) alone, 24 h
Protocol: The level of copper resistance of biofilms was evaluated using a cell viability assays. Briefly, Xac biofilms were prepared using NB with stationary incubation in glass tubes as described above. After 48 h-incubation, the cultures were removed and bacterial cells attached to the tubes were gently washed three times with SDW. One milliliter of fresh NB with CuSO4 (1.0 mM), D-leucine (10 mM) or IAN (100 μg/mL), or a combination of these compounds was added to each tube. NB alone was used as control. Tubes were kept at room temperature for 24 h and shaken vigorously for 5 min. The suspensions were diluted in 10-fold series, and 10 μL of each dilution spotted in triplicate on NA plate. Plates were incubated at 28° C. for 48 to 72 h prior to assessing bacterial growth. Colonies that grew near the dilution end-point were counted and bacterial populations in the initial suspensions prior to dilution were calculated. Each treatment compromises four replicates and the experiment repeated three times.

Row | SMILES | dose dependence of Xac306 biofilm decrease (Xac306 biofilm formation) | MIC ([1]; Xanthomonas citri) [µM] | level of canker lesions on sprayed leaves ([2]; D-leucine 10 mM, IAN 100 μg/mL, CuSO4 100 μg/mL) | log reduction in the number of CFU compared to untreated control ([2]; grapefruit leaves, 7 to 28 days after inoculation) [log] | viable cells in biofilms (Xac 306 biofilm cells) | MIC of CuSO4 in the presence of D-leucine and IAN ([1]; D-leucine 10 mM and IAN 100 μg/mL, planktonic cells, NB medium) [µM] | MIC of CuSO4 in the presence of D-leucine ([1]; D-leucine 10 mM, planktonic cells, NB medium) [µM] | MIC of CuSO4 in the presence of IAN ([1]; IAN 100 μg/mL, planktonic cells, NB medium) [µM] | MIC ([1]; compound alone, NB medium, 28° C., stationary, OD600) [µM]
1 | N[C@H](CO)C(=O)O [D-serine] | decreased Xac306 biofilm in a dose-dependent manner | 8000 (≈ 841 µg/mL) |  |  |  |  |  |  | 
2 | O=S(=O)([O-])[O-].[Cu+2] [CuSO4] |  |  | less than that sprayed with the pathogen alone | ~1.0 | 3×10^7 CFU/mL | 250 | 250 | 250 | 500
